Test results: PubChem BioAssay (NCI)
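Where inhibition never reached the appropriate level, the endpoint shown equals the highest concentration tested. Otherwise, values were interpolated linearly from a five-concentration, 48-hour dose response in 96-well plates. GI50 = concentration required for 50% inhibition of growth. TGI: concentration producing complete growth inhibition.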

How the values were obtained:
Test in all cases: NCI anticancer screen, dose series, 48 h
[1] = tested on: MDA-MB-435
[2] = tested on: SF-268 CNS
[3] = tested on: MDA-MB-231 breast
[4] = tested on: HL-60(TB) leukemia
[5] = tested on: RXF 393 renal
[6] = tested on: T-47D breast
[7] = tested on: COLO 205 colon
[8] = tested on: HT29 colon
[9] = tested on: SF-539 CNS
[10] = tested on: HCT-15 colon
[11] = tested on: OVCAR-5 ovarian
[12] = tested on: U251 CNS
[13] = tested on: SK-OV-3 ovarian
[14] = tested on: CCRF-CEM leukemia
[15] = tested on: K-562 leukemia
[16] = tested on: 786-0 renal
[17] = tested on: HCT-116 colon
[18] = tested on: CAKI-1 renal
[19] = tested on: HOP-62 NSCLC
[20] = tested on: NCI/ADR-RES ovarian
[21] = tested on: TK-10 renal
[22] = tested on: HOP-92 NSCLC
[23] = tested on: UO-31 renal
[24] = tested on: IGROV1 ovarian
[25] = tested on: SF-295 CNS
[26] = tested on: UACC-257 melanoma
[27] = tested on: UACC-62 melanoma
[28] = tested on: OVCAR-4 ovarian
[29] = tested on: NCI-H522 lung

## Oc1ccc(CSc2nnc(-c3ccncc3)n2-c2ccccc2)c2cccnc12
[1]
  TGI: > 100 µM
[2]
  GI50: 0.804 µM
  TGI: > 100 µM
[3]
  GI50: 1.26 µM
  TGI: > 55.6 µM
[4]
  GI50: 0.677 µM
  TGI: 5.32 µM
[5]
  GI50: 2.83 µM
  TGI: 70.5 µM
[6]
  GI50: 1.44 µM
  TGI: > 45.4 µM
[7]
  GI50: 19.2 µM
  TGI: > 80.4 µM
[8]
  GI50: 3.87 µM
  TGI: > 100 µM
[9]
  GI50: 0.769 µM
  TGI: 31.3 µM
[10]
  GI50: 0.363 µM
  TGI: > 100 µM
[11]
  GI50: 3.69 µM
  TGI: > 100 µM
[12]
  GI50: 0.422 µM
  TGI: 63.6 µM
[13]
  GI50: 2.32 µM
  TGI: > 29.4 µM
[14]
  GI50: 0.513 µM
  TGI: > 100 µM
[15]
  GI50: 0.363 µM
  TGI: > 100 µM
[16]
  GI50: 3.4 µM
  TGI: 20 µM
[17]
  GI50: 0.376 µM
  TGI: > 100 µM
[18]
  GI50: 1.61 µM
  TGI: > 100 µM
[19]
  GI50: 0.773 µM
  TGI: 16.3 µM
[20]
  GI50: 0.309 µM
  TGI: > 26.4 µM
[21]
  GI50: 3.25 µM
  TGI: > 100 µM
[22]
  GI50: 0.192 µM
  TGI: 0.628 µM
[23]
  GI50: 0.451 µM
  TGI: 12.8 µM
[24]
  GI50: 1.04 µM
  TGI: > 57 µM
[25]
  GI50: 1.14 µM
  TGI: > 38.5 µM
[26]
  GI50: 2.4 µM
  TGI: > 31.3 µM
[27]
  GI50: 1.75 µM
  TGI: 7.52 µM
[28]
  GI50: 3.18 µM
  TGI: > 100 µM
[29]
  GI50: 0.369 µM
  TGI: > 100 µM
